Assay results reported in patent publication EP0255100A2, “Use of trimetrexate and its salts for the preparation of pharmaceutical compositions for treating infections of the mycobacterium-avium-intracellulare complex” (WARNER-LAMBERT COMPANY, priority 1986, dated 1988).
Values after ≈ are worked out from the molar mass of the structure shown. Like-named read-outs stand apart in the source and are kept apart here.

What was measured:
[1] = system: Mycobacterium avium-intracellulare complex; assay: minimal inhibitory concentration by the standard T100 growth inhibition method; format: cell-based
Description: The activity of trimetrexate at several concentrations ranging from 2 to 64 micrograms/ml was tested against fifteen strains of Mycobacterium avium-intracellulare isolated from AIDS patients who were also suffering from infections of the MAI complex. Drug activity was measured using both a radiometric assay and growth inhibition analysis by the T100 method. (S.H. Siddiqi et al., J. Clin. Microbiol., 22: 919-923 (1985); S.H. Siddiqi et al., J. Clin. Microbiol., 13: 908-912 (1981); and D.E. Snyder et al., Am. Rev. Respir. Dis., 123: 402-406 (1981).
In a second test, the minimal inhibitory concentration (MIC) required to inhibit 99% and 99.9% growth of the test strains of the Mycobacterium avium-intracellulare complex was determined employing the standard T100 method. The results appear in Table II where the MIC value is given for each of the tested MAI complex strains.

[2] = system: Mycobacterium avium-intracellulare complex; assay: radiometric assay (14CO2 release from 14C palmitic acid in 7H12 medium, BACTEC 460), percent microorganism killed; format: cell-based; details: for killing at 16 µg/mL: Mycobacterium avium-intracellulare, 168 h, read-out: Percent Microorganism Killed One Week Post
[3] = MAI Complex Strain 109, trimetrexate 16 µg/ml

COc1cc(NCc2ccc3nc(N)nc(N)c3c2C)cc(OC)c1OC [trimetrexate, 5-methyl-6-{[(3,4,5-trimethoxyphenyl)amino]methyl}-2-4-quinazolinediamine]
MIC ([1]; MAI Complex Strain 100, 99% growth inhibition, read-out: Approximate Minimal Inhibitory Concentration (MIC) 99%): 2 µg/mL (≈ 5.41 µM) | MIC ([1]; MAI Complex Strain 100, 99.9% growth inhibition, read-out: Approximate Minimal Inhibitory Concentration (MIC) 99.9%): 2 µg/mL (≈ 5.41 µM) | MIC ([1]; MAI Complex Strain 101, 99% growth inhibition, read-out: Approximate Minimal Inhibitory Concentration (MIC) 99%): 4 µg/mL (≈ 10.8 µM) | MIC ([1]; MAI Complex Strain 101, 99.9% growth inhibition, read-out: Approximate Minimal Inhibitory Concentration (MIC) 99.9%): 4 µg/mL (≈ 10.8 µM) | MIC ([1]; MAI Complex Strain 102, 99% growth inhibition, read-out: Approximate Minimal Inhibitory Concentration (MIC) 99%): 8 µg/mL (≈ 21.7 µM) | MIC ([1]; MAI Complex Strain 102, 99.9% growth inhibition, read-out: Approximate Minimal Inhibitory Concentration (MIC) 99.9%): 8 µg/mL (≈ 21.7 µM) | MIC ([1]; MAI Complex Strain 103, 99% growth inhibition, read-out: Approximate Minimal Inhibitory Concentration (MIC) 99%): 2 µg/mL (≈ 5.41 µM) | MIC ([1]; MAI Complex Strain 103, 99.9% growth inhibition, read-out: Approximate Minimal Inhibitory Concentration (MIC) 99.9%): 2 µg/mL (≈ 5.41 µM) | MIC ([1]; MAI Complex Strain 104, 99% growth inhibition, read-out: Approximate Minimal Inhibitory Concentration (MIC) 99%): 2 µg/mL (≈ 5.41 µM) | MIC ([1]; MAI Complex Strain 104, 99.9% growth inhibition, read-out: Approximate Minimal Inhibitory Concentration (MIC) 99.9%): 2 µg/mL (≈ 5.41 µM) | MIC ([1]; MAI Complex Strain 105, 99% growth inhibition, read-out: Approximate Minimal Inhibitory Concentration (MIC) 99%): 2 µg/mL (≈ 5.41 µM) | MIC ([1]; MAI Complex Strain 105, 99.9% growth inhibition, read-out: Approximate Minimal Inhibitory Concentration (MIC) 99.9%): 2 µg/mL (≈ 5.41 µM) | MIC ([1]; MAI Complex Strain 107, 99% growth inhibition, read-out: Approximate Minimal Inhibitory Concentration (MIC) 99%): 2 µg/mL (≈ 5.41 µM) | MIC ([1]; MAI Complex Strain 107, 99.9% growth inhibition, read-out: Approximate Minimal Inhibitory Concentration (MIC) 99.9%): 2 µg/mL (≈ 5.41 µM) | MIC ([1]; MAI Complex Strain 108, 99% growth inhibition, read-out: Approximate Minimal Inhibitory Concentration (MIC) 99%): 2 µg/mL (≈ 5.41 µM) | MIC ([1]; MAI Complex Strain 108, 99.9% growth inhibition, read-out: Approximate Minimal Inhibitory Concentration (MIC) 99.9%): 2 µg/mL (≈ 5.41 µM) | MIC ([1]; MAI Complex Strain 109, 99% growth inhibition, read-out: Approximate Minimal Inhibitory Concentration (MIC) 99%): 2 µg/mL (≈ 5.41 µM) | MIC ([1]; MAI Complex Strain 109, 99.9% growth inhibition, read-out: Approximate Minimal Inhibitory Concentration (MIC) 99.9%): 2 µg/mL (≈ 5.41 µM) | MIC ([1]; MAI Complex Strain 110, 99% growth inhibition, read-out: Approximate Minimal Inhibitory Concentration (MIC) 99%): 2 µg/mL (≈ 5.41 µM) | MIC ([1]; MAI Complex Strain 110, 99.9% growth inhibition, read-out: Approximate Minimal Inhibitory Concentration (MIC) 99.9%): 2 µg/mL (≈ 5.41 µM) | MIC ([1]; MAI Complex Strain 111, 99% growth inhibition, read-out: Approximate Minimal Inhibitory Concentration (MIC) 99%): 2 µg/mL (≈ 5.41 µM) | MIC ([1]; MAI Complex Strain 111, 99.9% growth inhibition, read-out: Approximate Minimal Inhibitory Concentration (MIC) 99.9%): 2 µg/mL (≈ 5.41 µM) | MIC ([1]; MAI Complex Strain 113, 99% growth inhibition, read-out: Approximate Minimal Inhibitory Concentration (MIC) 99%): 2 µg/mL (≈ 5.41 µM) | MIC ([1]; MAI Complex Strain 113, 99.9% growth inhibition, read-out: Approximate Minimal Inhibitory Concentration (MIC) 99.9%): 2 µg/mL (≈ 5.41 µM) | MIC ([1]; MAI Complex Strain 116, 99% growth inhibition, read-out: Approximate Minimal Inhibitory Concentration (MIC) 99%): 2 µg/mL (≈ 5.41 µM) | MIC ([1]; MAI Complex Strain 116, 99.9% growth inhibition, read-out: Approximate Minimal Inhibitory Concentration (MIC) 99.9%): 2 µg/mL (≈ 5.41 µM) | MIC ([1]; MAI Complex Strain 117, 99% growth inhibition, read-out: Approximate Minimal Inhibitory Concentration (MIC) 99%): 2 µg/mL (≈ 5.41 µM) | MIC ([1]; MAI Complex Strain 117, 99.9% growth inhibition, read-out: Approximate Minimal Inhibitory Concentration (MIC) 99.9%): 2 µg/mL (≈ 5.41 µM) | MIC ([1]; MAI Complex Strain 128, 99% growth inhibition, read-out: Approximate Minimal Inhibitory Concentration (MIC) 99%): 2 µg/mL (≈ 5.41 µM) | MIC ([1]; MAI Complex Strain 128, 99.9% growth inhibition, read-out: Approximate Minimal Inhibitory Concentration (MIC) 99.9%): 2 µg/mL (≈ 5.41 µM) | MIC ([1]; every strain of the MAI complex tested (summary of Table II), read-out: concentration exhibiting inhibitory activity): ≤ 8 µg/mL | Percent Microorganism Killed One Week Post [2, 3]: 42% | killing at 16 µg/mL ([2]; MAI Complex Strain 100, trimetrexate 16 µg/ml): 65% | killing at 16 µg/mL ([2]; MAI Complex Strain 101, trimetrexate 16 µg/ml): 68% | killing at 16 µg/mL ([2]; MAI Complex Strain 108, trimetrexate 16 µg/ml): 70% | killing at 16 µg/mL [2, 3]: 42% | killing at 16 µg/mL ([2]; MAI Complex Strain 116, trimetrexate 16 µg/ml): 91% | bactericidal activity ([2]; all strains of the MAI complex tested, trimetrexate 16 µg/ml alone): potent bactericidal activity
